Results as given in US20100056516A1 (priority 2006, published 2010).

Columns and labels:
[1] = target: HIV integrase (Human immunodeficiency virus type 1 group M subtype B, UniProt P04585); assay: integrase strand transfer assay (STA); format: biochemical; conditions: integrase strand transfer; read-out: IC50 in the STA assay
[2] = system: HXB2 virus; assay: microbe, parasite or virus in culture; format: cell-based, HIV; conditions: Human immunodeficiency virus 1, HXB2, HeLaP4-2, read-out: antiviral IC50 (SCIA-B)
Method: An assay for measuring the inhibition of acute HIV infection with HeLa P4-2 cells in a single cycle infectivity assay (SCIA-A) was conducted in accordance with Joyce, J. G., et al., J. Biol. Chem., 2002, 277, 45811, Hazuda, D. J. et al., Science, 2000, 287, 646, and Kimpton, J. et al, J. Virol. 1992, 66, 2232. Infectious virus was produced by transfecting 293T cells with HIV proviral DNA in which the integrase gene was derived from a IIIB isolate and the remainder of the HIV genome was derived from the NL4-3 isolate.
This assay B for measuring the inhibition of acute HIV infection with HeLa P4-2 cells in a single cycle infectivity assay (SCIA-B) is essentially the same as Assay A described above, except that HXB2 virus is employed instead of the IIIb isolate.

Structure (SMILES)	IC50 [1]	IC50 [2]
CC(=O)c1cnc2c(c1)c(O)c(-c1ccccc1)c(=O)n2O [Example 71, 6-acetyl-1,4-dihydroxy-3-phenyl-1,8-naphthyridin-2(1H)-one]	< 50 µM	< 100 µM
O=c1c(Br)c(O)c2cc(-c3ccncc3)cnc2n1O [Example 72, 3-Bromo-1,4-dihydroxy-6-pyridin-4-yl-1,8-naphthyridin-2(1H)-one]	< 50 µM	< 100 µM
CCc1cnc2c(c1)c(O)c(-c1ccccc1)c(=O)n2O [Example 73, 6-Ethyl-1,4-dihydroxy-3-phenyl-1,8-naphthyridin-2(1H)-one]	< 50 µM	< 100 µM
CC(Br)Cc1cnc2c(c1)c(O)c(-c1ccccc1)c(=O)n2O (centres unmarked) [Example 74, 6-(2-Bromopropyl)-1,4-dihydroxy-3-phenyl-1,8-naphthyridin-2(1H)-one]	< 50 µM	< 100 µM
O=c1c(-c2ccccc2)c(O)c2cc(-c3cccs3)cnc2n1O [Example 75, 6-(thien-2-yl)-1,4-dihydroxy-3-phenyl-1,8-napthyridin-2(1H)-one]	< 50 µM	< 100 µM
CC(NCc1cccc(Cl)c1)c1cnc2c(c1)c(O)c(-c1ccccc1)c(=O)n2O (centres unmarked) [Example 76, 6-{1-[(3-Chlorobenzyl)amino]ethyl}-1,4-dihydroxy-3-phenyl-1,8-napthyridin-2(1H)-one]	< 50 µM	< 100 µM
CCOC(=O)c1c(O)c2cc(C(=O)NCc3ccccc3)cnc2n(O)c1=O [Example 77, Ethyl 6-[(benzylamino)carbonyl]-1,4-dihydroxy-2-oxo-1,2-dihydro-1,8-naphthyridine-3-carboxylate]	< 50 µM	< 100 µM
CCOC(=O)c1c(O)c2cc(C(=O)NCc3cccc(OC)c3)cnc2n(O)c1=O [Example 78, Ethyl 1,4-dihydroxy-6-{[3-methoxybenzyl)amino] carbonyl}-2-oxo-1,2-dihydro-1,8-naphthyridine-3-carboxylate]	< 50 µM	< 100 µM
CCOC(=O)c1c(O)c2cc(C(=O)NCc3ccccc3OC)cnc2n(O)c1=O [Example 79, Ethyl 1,4-dihydroxy-6-{[2-methoxybenzyl)amino] carbonyl}-2-oxo-1,2-dihydro-1,8-naphthyridine-3-carboxylate]	< 50 µM	< 100 µM
CCOC(=O)c1c(O)c2cc(C(=O)N(C)Cc3ccccc3)cnc2n(O)c1=O [Example 80, Ethyl 6-{[benzyl(methyl)amino]carbonyl}-1,4-dihydroxy-2-oxo-1,2-dihydro-1,8-naphthyridine-3-carboxylate]	< 50 µM	< 100 µM
CCOC(=O)c1c(O)c2cc(C(=O)N3CCCCC3CCc3ccccc3)cnc2n(O)c1=O (centres unmarked) [Example 82, Ethyl 1,4-dihydroxy-2-oxo-6-{[2-(2-phenylethyl)piperidin-1-yl]carbonyl}-1,2-dihydro-1,8-naphthyridine-3-carboxylate]	< 50 µM	< 100 µM
CCOC(=O)c1c(O)c2cc(C(=O)N3CCC(CCCc4ccccc4)CC3)cnc2n(O)c1=O [Example 83, Ethyl 1,4-dihydroxy-2-oxo-6-{[4-(3-phenylpropyl)piperidin-1-yl]carbonyl}-1,2-dihydro-1,8-naphthyridine-3-carboxylate]	< 50 µM	< 100 µM
CCOC(=O)c1c(O)c2cc(C(=O)N3CCC(CCc4ccccc4)CC3)cnc2n(O)c1=O [Example 84, Ethyl 1,4-dihydroxy-2-oxo-6-{[4-(2-phenylethyl)piperidin-1-yl]carbonyl}-1,2-dihydro-1,8-naphthyridine-3-carboxylate]	< 50 µM	< 100 µM
CCOC(=O)c1c(O)c2cc(C(=O)N3CCC(Cc4ccccc4)C3)cnc2n(O)c1=O (centres unmarked) [Example 85, Ethyl 6-[(3-benzylpyrrolidin-1-yl)carbonyl]-1,4-dihydroxy-2-oxo-1,2-dihydro-1,8-naphthyridine-3-carboxylate]	< 50 µM	< 100 µM
CCOC(=O)c1c(O)c2cc(C(=O)NC3CCCCC3)cnc2n(O)c1=O [Example 86, ethyl-6-[(cyclohexylamino)carbonyl]-1,4-dihydroxy-2-oxo-1,2-dihydro-1,8-naphthyridine-3-carboxylate]	< 50 µM	< 100 µM
O=C(NCc1ccccc1)c1cnc2c(c1)c(O)c(C(=O)NCc1ccccc1)c(=O)n2O [Example 87, N,N′-Dibenzyl-1,4-dihydroxy-2-oxo-1,2-dihydro-1,8-naphthyridine-3,6-dicarboxamide]	< 50 µM	< 100 µM
CCOC(=O)c1ccnc2c1c(O)cc(=O)n2O [Example 88, Ethyl 5,8-dihydroxy-7-oxo-7,8-dihydro-1,8-naphthyridine-4-carboxylate]	< 50 µM	< 100 µM
CCOC(=O)c1c(O)c2cc(Oc3ccc(N)cc3)cnc2n(O)c1=O [Example 89, Ethyl 6-(4-aminophenoxy)-1,4-dihydroxy-2-oxo-1,2-dihydro-1,8-naphthyridine-3-carboxylate]	< 50 µM	< 100 µM
CCOC(=O)c1c(O)c2cc(Oc3ccc(N(CC)CC)cc3)cnc2n(O)c1=O [Example 90, Ethyl 6-[4-(diethylamino)phenoxy]-1,4-dihydroxy-2-oxo-1,2-dihydro-1,8-naphthyridine-3-carboxylate]	< 50 µM	< 100 µM

Structure (SMILES)	IC50 [1]	IC50 [2]
COC(=O)c1cnc2c(c1)c(O)c(C(=O)NCc1ccccc1)c(=O)n2O [Example 91, Methyl 6-[(benzylamino)carbonyl]-5,8-dihydroxy-7-oxo-7,8-dihydro-1,8-naphthyridine-3-carboxylate]	< 50 µM	< 100 µM
CCOC(=O)c1cnc2c(c1)c(O)c(C(=O)NCc1ccccc1)c(=O)n2O [Example 92, Ethyl 6-[(benzylamino)carbonyl]-5,8-dihydroxy-7-oxo-7,8-dihydro-1,8-naphthyridine-3-carboxylate]	< 50 µM	< 100 µM
CC(=O)c1c(O)c2cccnc2n(O)c1=O [Example 93, 3-acetyl-1,4-dihydroxy-1,8-naphthyridin-2(1H)-one]	> 50 µM	< 100 µM
Cc1n[nH]c2c1c(=O)n(O)c1ncccc21 [Example 94, 5-Hydroxy-3-methyl-1,5-dihydro-4H-pyrazolo[4,3-c]-1,8-naphthyridin-4-one]	< 50 µM	< 100 µM
O=c1c(-c2ccccc2)c(O)c2cc(S(=O)(=O)Nc3ccccc3)cnc2n1O [Example 95, 5,8-Dihydroxy-7-oxo-N,6-diphenyl-7,8-dihydro-1,8-naphthyridine-3-sulfonamide]	< 50 µM	< 100 µM
O=c1c(-c2ccccc2)c(O)c2cc(S(=O)(=O)NCc3ccccc3)cnc2n1O [Example 96, N-benzyl-5,8-dihydroxy-7-oxo-6-phenyl-7,8-dihydro-1,8-naphthyridine-3-sulfonamide]	< 50 µM	< 100 µM
CCOC(=O)c1c(N)c2cccnc2n(O)c1=O [Example 97, Ethyl 4-amino-1-hydroxy-2-oxo-1,2-dihydro-1,8-naphthyridine-3-carboxylate]	< 50 µM	< 100 µM
CCOC(=O)c1c(N)c2cc(-c3ccccc3)cnc2n(O)c1=O [Example 98, Ethyl 4-amino-1-hydroxy-2-oxo-6-phenyl-1,2-dihydro-1,8-naphthyridine-3-carboxylate]	< 50 µM	< 100 µM
Nc1cc(=O)n(O)c2ncccc12 [Example 99, 4-Amino-1-hydroxy-1,8-naphthyridin-2(1H)-one]	< 50 µM	< 100 µM
CC(=O)Nc1cc(=O)n(O)c2ncccc12 [Example 100, N-(1-Hydroxy-2-oxo-1,2-dihydro-1,8-naphthyridin-4-yl)acetamide]	< 50 µM	< 100 µM
O=C(Cc1ccccc1)Nc1cc(=O)n(O)c2ncccc12 [Example 101, N-(1-Hydroxy-2-oxo-1,2-dihydro-1,8-naphthyridin-4-yl)-2-phenylacetamide]	< 50 µM	< 100 µM
O=C(Nc1cc(=O)n(O)c2ncccc12)c1ccccc1 [Example 102, N-(1-Hydroxy-2-oxo-1,2-dihydro-1,8-naphthyridin-4-yl)benzamide]	< 50 µM	< 100 µM
O=c1cc(Nc2ccccc2)c2cccnc2n1O [Example 103, 4-Anilino-1-hydroxy-1,8-naphthyridin-2(1H)-one]	< 50 µM	< 100 µM
O=c1cc(Nc2ccccc2-c2ccccc2)c2cccnc2n1O [Example 104, 4-(Biphenyl-2-ylamino)-1-hydroxy-1,8-naphthyridin-2(1H)-one]	< 50 µM	< 100 µM
O=c1cc(Nc2cccc(-c3ccccc3)c2)c2cccnc2n1O [Example 105, 4-(Biphenyl-3-ylamino)-1-hydroxy-1,8-naphthyridin-2(1H)-one]	< 50 µM	< 100 µM
O=c1cc(NC(CN2CCOCC2)c2ccccc2)c2cccnc2n1O (centres unmarked) [Example 107, 1-Hydroxy-4-[(2-morpholin-4-yl-1-phenylethyl)amino]-1,8-naphthyridin-2(1H)-one]	< 50 µM	< 100 µM
O=c1cc(NC2CCN(Cc3ccccc3)CC2)c2cccnc2n1O [Example 108, 4-[(1-Benzylpiperidin-4-yl)amino]-1-hydroxy-1,8-naphthyridin-2(1H)-one]	< 50 µM	< 100 µM
CCOC(=O)N1CCC(Nc2cc(=O)n(O)c3ncccc23)CC1 [Example 109, Ethyl 4-[(1-hydroxy-2-oxo-1,2-dihydro-1,8-naphthyridin-4-yl)amino]piperidine-1-carboxylate]	< 50 µM	< 100 µM
